Assay results reported in patent EP0037516A1, “N-omega substituted derivatives of 1-Desamino-vasopressin analogs” (VEGA LABORATORIES, INC., priority 1980, dated 1981).
Marks after values point to notes of the source that are not given here. *1 amine or outer side, *2 acyl side, *3 side chain or, on linkers, in order; H or OH if unused. Where a SMILES comes first, the peptide text is derived from it. Bridges are numbered along the chain shown (N, C = ends). Side-chain parts run from the residue outwards. [ ]: non-standard residue; d: D form. Thz = O=C(O)[C@@H]1CSCN1; X1 = O=C(CCC[*:2])[*:1]; Mpa = O=C(O)CCS

Experiments:
[1] = Antidiuretic assay in rats, calibrated against arginine-vasopressin; assay type: in vivo, male Sprague-Dawley rats; conditions: for Peak Potency (antidiuretic activity): 200g male Sprague-Dawley rats, calibrated against arginine-vasopressin; for Mean Peak Potency (Product) F: antidiuretic activity, peak potency multiplied by F; for Ratio of Half-Life of Compound to Parent Half-Life (F): antidiuretic response; for antidiuretic activity (in words): comment on Table 4
[2] = Pressor assay in rats, calibrated against arginine-vasopressin; assay type: in vivo, male Sprague-Dawley rats; conditions: for Peak Potency (pressor activity): 200g male Sprague-Dawley rats, calibrated against arginine-vasopressin; for Mean Peak Potency (Product) F: pressor activity, peak potency multiplied by F; for Ratio of Half-Life of Compound to Parent Half-Life (F): pressor response; for pressor activity (in words): comment on Table 3
Factor VIII [3] = assay: Factor VIII release, clotting assay in male canine citrated plasma; assay type: in vivo; conditions: for Factor VIII releasing activity (in words): comment on Table 5; for Factor VIII Releasing Activity: male canine citrated plasma, calibrated against desmopressin
Description: Pressor and antidiuretic assays of the compounds of Examples I-IV were carried out in 200g body weight, male Sprague-Dawley rats using the techniques reported by Schaechtelin et al in "Enhancement of the Activity of Angiotensin II by Certain Cations," Molec. Pharmacol., 10, 57-67 (1974) and Cort et al in "Role of the Disulfide Bridge and the C-Terminal Tripeptide in the Anti-diuretic Action of Vasopressin in Man and the Rat", Kidney Internat. , 8, 292-302 (1975), with calibration of responses against a 3-point curve using highly purified arginine-vasopressin of known activity. Similar tests were performed on known vasopressin analogs for purposes of comparison. In addition, the release of Factor VIII by the compounds of Examples I-IV was tested in male canine citrated plasna using the clotting assay described by Prowse et al, in Brit. J. Haematol., 41, 437 (1979), and the results were calibrated against the Factor VIII releasing activity of desmopressin. In all cases, the half-lives of the responses were compared to the standard at equi-peak-potent levels.

Factor VIII [4] = assay: Factor VIII releasing activity in pentothal-anesthetized dogs, standard clotting assay; assay type: in vivo; conditions: for Factor VIII Releasing Activity: dogs
Description: The 9-Ala-NH2 analogs of Examples XII and XIII were evaluated for ability to stimulate production of Factor VIII by administration to pentothal-anesthestized dogs. These analogs, as well as desmopressin used as a control, were administered i.v. into the external jugular vein at a dose of 10 meg/kg body weight. Factor VIII analysis was performed by standard clotting assay (using normal dog plasma as 100% clotting and severely hemophilic dog plasma as 0% for the standard curve) just prior to injection, and at periodic intervals for up to 4 hours after injection.

[5] = as compared to [8-Lys]-vasopressin (footnote *)
[6] = as compared to 1-desamino-[8-Lys]-vasopressin (footnote ***)
[7] = as compared to [2-Phe,8-Lys]-vasopressin
[8] = no comparator footnote (parent itself)
[9] = Pre-Injection, normal dog plasma = 100% clotting

| Compound | Peak Potency (antidiuretic activity) [1] | Mean Peak Potency (Product) F [1] | Ratio of Half-Life of Compound to Parent Half-Life (F) ([1]; comparator not given) | Peak Potency (pressor activity) [2] | Mean Peak Potency (Product) F [2] | Factor VIII Releasing Activity (Factor VIII [3]) | antidiuretic activity (in words) [1] | pressor activity (in words) [2] | also measured |
| --- | --- | --- | --- | --- | --- | --- | --- | --- | --- |
| NCCCC[C@H](NC(=O)[C@@H]1CCCN1C(=O)[C@@H]1CSSCCC(=O)N[C@@H](Cc2ccc(O)cc2)C(=O)N[C@@H](Cc2ccccc2)C(=O)N[C@@H](CCC(N)=O)C(=O)N[C@@H](CC(N)=O)C(=O)N1)C(=O)NCC(N)=O [1-desamino-[8-Lys]-vasopressin, reference compound] | 300 IU/mg | 450 | 1.5 | 126 IU/mg | 189 |  |  |  | Ratio of Half-Life of Compound to Parent Half-Life (F) [2, 5]: 1.5* |
| CC(C)C[C@H](N)C(=O)NCCCC[C@H](NC(=O)[C@@H]1CSCN1C(=O)[C@@H]1CSCCCC(=O)N[C@@H](Cc2ccc(O)cc2)C(=O)N[C@@H](Cc2ccccc2)C(=O)N[C@@H](CCC(N)=O)C(=O)N[C@@H](CC(N)=O)C(=O)N1)C(=O)NCC(N)=O [Example IV, 1-Desamino-1-monocarba-[7-thioPro, 8-NE-Lys(Leu)]-Vasopressin] (YFQNC[Thz]K(Leu)G-NH2; linker N-5 via X1) | 450 IU/mg | 3015 | 6.7 | 350 IU/mg | 3675 | 285% | considerable antidiuretic activity | prolonged pressor activity of higher potency than that of tGLVP | Factor VIII releasing activity (in words) (Factor VIII [3]): significant activity in releasing Factor VIII; Ratio of Half-Life of Compound to Parent Half-Life (F) [2, 6]: 10.5*** |
| NCC(=O)NCCCC[C@H](NC(=O)[C@@H]1CCCN1C(=O)[C@@H]1CSSCCC(=O)N[C@@H](Cc2ccccc2)C(=O)N[C@@H](Cc2ccccc2)C(=O)N[C@@H](CCC(N)=O)C(=O)N[C@@H](CC(N)=O)C(=O)N1)C(=O)NCC(N)=O [Example I, l-Desamino-[2-Phe, 8-N^ε-Lys(Gly)]-Vasopressin] ([Mpa]FFQNCPK(Gly)G-NH2; disulfide 1-6) | 6 IU/mg | 24 | 4.0 | 6.9 IU/mg | 60 | 101% | low antidiuretic activity | prolonged pressor activity of higher potency than that of tGLVP | Ratio of Half-Life of Compound to Parent Half-Life (F) [2, 7]: 8.7** |
| NCC(=O)NCC(=O)NCC(=O)NCCCC[C@H](NC(=O)[C@@H]1CCCN1C(=O)[C@@H]1CSSCCC(=O)N[C@@H](Cc2ccc(O)cc2)C(=O)N[C@@H](Cc2ccccc2)C(=O)N[C@@H](CCC(N)=O)C(=O)N[C@@H](CC(N)=O)C(=O)N1)C(=O)NCC(N)=O [Example II, 1-Desamino-[8-N^ε-Lys(Gly-Gly-Gly)]-Vasopressin] | 8 IU/mg | 44 | 5.5 | 15 IU/mg | 157.5 | 104% | low antidiuretic activity | prolonged pressor activity of higher potency than that of tGLVP | Ratio of Half-Life of Compound to Parent Half-Life (F) [2, 6]: 10.5*** |
| NCCCC[C@H](NC(=O)[C@@H]1CCCN1C(=O)[C@@H]1CSSC[C@H](N)C(=O)N[C@@H](Cc2ccc(O)cc2)C(=O)N[C@@H](Cc2ccccc2)C(=O)N[C@@H](CCC(N)=O)C(=O)N[C@@H](CC(N)=O)C(=O)N1)C(=O)NCC(N)=O [[8-Lys]-vasopressin, reference compound] | 200 IU/mg | 220 | 1.0 | 220 IU/mg | 220 |  |  |  | Ratio of Half-Life of Compound to Parent Half-Life (F) [2, 8]: 1.0 |
| C[C@@H](NC(=O)[C@H](CCCCNC(=O)CNC(=O)CNC(=O)CN)NC(=O)[C@@H]1CCCN1C(=O)[C@@H]1CSSCCC(=O)N[C@@H](Cc2ccc(O)cc2)C(=O)N[C@@H](Cc2ccccc2)C(=O)N[C@@H](CCC(N)=O)C(=O)N[C@@H](CC(N)=O)C(=O)N1)C(N)=O [Example XII, 1-Desamino-[8-N^9-Lys(Gly-Gly-Gly), 9-D-Ala]-vasopressin] ([Mpa]YFQNCPK([Gly-Gly-Gly])[dA]-NH2; disulfide 1-6) |  |  |  |  |  |  |  |  | Factor VIII Releasing Activity (Factor VIII [4]; 15 min. after i.v. 10 meg/kg): 110%; Factor VIII Releasing Activity (Factor VIII [4]; 60 min. after i.v. 10 meg/kg): 165%; Factor VIII Releasing Activity (Factor VIII [4]; 120 min. after i.v. 10 meg/kg): 185%; Factor VIII Releasing Activity (Factor VIII [4]; 240 min. after i.v. 10 meg/kg): 220%; Factor VIII Releasing Activity (Factor VIII [4]; [9]): 100% |
| NCCCC[C@H](NC(=O)[C@@H]1CCCN1C(=O)[C@@H]1CSSCCC(=O)N[C@@H](Cc2ccccc2)C(=O)N[C@@H](Cc2ccccc2)C(=O)N[C@@H](CCC(N)=O)C(=O)N[C@@H](CC(N)=O)C(=O)N1)C(=O)NCC(N)=O [1-desamino-[2-Phe, 8-Lys]-vasopressin, 1-desamino-[2-Phe, 8-Lys]vasopressin, reference compound] ([Mpa]FFQNCPKG-NH2; disulfide 1-6) | 30 IU/mg | 45 | 1.5 | 45 IU/mg | 67.5 |  |  |  | Ratio of Half-Life of Compound to Parent Half-Life (F) [2, 7]: 1.5** |
| Desmopressin [reference compound] |  |  |  |  |  | 250% |  |  | Factor VIII Releasing Activity (Factor VIII [4]; 15 min. after i.v. 10 meg/kg): 125%; Factor VIII Releasing Activity (Factor VIII [4]; 60 min. after i.v. 10 meg/kg): 185%; Factor VIII Releasing Activity (Factor VIII [4]; 120 min. after i.v. 10 meg/kg): 125%; Factor VIII Releasing Activity (Factor VIII [4]; 240 min. after i.v. 10 meg/kg): 105%; Factor VIII Releasing Activity (Factor VIII [4]; [9]): 98%; Factor VIII releasing activity (in words) (Factor VIII [4]; comment on Table 6, 4 hours after injection): substantially decreased to zero at 4 hours |
| NCCCC[C@H](NC(=O)[C@@H]1CCCN1C(=O)[C@@H]1CSSC[C@H](N)C(=O)N[C@@H](Cc2ccccc2)C(=O)N[C@@H](Cc2ccccc2)C(=O)N[C@@H](CCC(N)=O)C(=O)N[C@@H](CC(N)=O)C(=O)N1)C(=O)NCC(N)=O [[2-Phe, 8-Lys]-vasopressin, reference compound] (H-CFFQNCPKG-NH2; disulfide 1-6) | 25 IU/mg | 25 | 1.0 | 80 IU/mg | 80 |  |  |  | Ratio of Half-Life of Compound to Parent Half-Life (F) [2, 8]: 1.0 |
| C[C@H](NC(=O)[C@@H](CCCCNC(=O)CNC(=O)CNC(=O)CN)NC(=O)[C@@H]1CCCN1C(=O)[C@@H]1CSSCCC(=O)N[C@@H](Cc2ccc(O)cc2)C(=O)N[C@@H](Cc2ccccc2)C(=O)N[C@@H](CCC(N)=O)C(=O)N[C@@H](CC(N)=O)C(=O)N1)C(N)=O [Example XIII, 1-Desamino-[Q-D-NE-Lys(Gly-Gly-Gly), 9-Ala-NH2]-vasopressin] ([Mpa]YFQNCP[dK]([Gly-Gly-Gly])A-NH2; disulfide 1-6) |  |  |  |  |  |  |  |  | Factor VIII Releasing Activity (Factor VIII [4]; 15 min. after i.v. 10 meg/kg): 115%; Factor VIII Releasing Activity (Factor VIII [4]; 60 min. after i.v. 10 meg/kg): 153%; Factor VIII Releasing Activity (Factor VIII [4]; 120 min. after i.v. 10 meg/kg): 175%; Factor VIII Releasing Activity (Factor VIII [4]; 240 min. after i.v. 10 meg/kg): 210%; Factor VIII Releasing Activity (Factor VIII [4]; [9]): 105% |
| NCCCC[C@H](NC(=O)[C@@H]1CCCN1C(=O)[C@@H]1CSSC[C@H](NC(=O)CNC(=O)CNC(=O)CN)C(=O)N[C@@H](Cc2ccc(O)cc2)C(=O)N[C@@H](Cc2ccccc2)C(=O)N[C@@H](CCC(N)=O)C(=O)N[C@@H](CC(N)=O)C(=O)N1)C(=O)NCC(N)=O [tGLVP, N^c<-glycyl-glycyl-glycyl-8-lysine-vasopressin, reference compound] (H-GGGCYFQNCPKG-NH2; disulfide 4-9) | 1.1 IU/mg | 9.2 | 4.0 | 2.1 IU/mg | 8.4 |  |  |  | Ratio of Half-Life of Compound to Parent Half-Life (F) [2, 5]: 4.0* |
| CC[C@H](C)[C@@H]1NC(=O)[C@H](Cc2ccc(O)cc2)NC(=O)CCSSC[C@@H](C(=O)N2CCC[C@H]2C(=O)N[C@H](CCCCNC(=O)CN)C(=O)NCC(N)=O)NC(=O)[C@H](CC(N)=O)NC(=O)[C@H](CCC(N)=O)NC1=O [Example III, 1-Desamino-[8-D-N^ε-Lys(Gly)]-Vasotocin] ([Mpa]YIQNCP[dK](Gly)G-NH2; disulfide 1-6) | 290 IU/mg | 1508 |  | 0.1 IU/mg |  | 165% | considerable antidiuretic activity | substantially devoid of pressor activity | Factor VIII releasing activity (in words) (Factor VIII [3]): significant activity in releasing Factor VIII; Ratio of Half-Life of Compound to Parent Half-Life (F) ([1]; as compared to 1-desamino-[8-Lys]-vasopressin (footnote *)): 5.2* |
